Experimental data taken from PMC10222454, “Characterization of the Molecular Diversity and Degranulation Activity of Mastoparan Family Peptides from Wasp Venoms” (Toxins, 2023).
Where two headings read alike, the source gives them in different places. Ends that are not written are not given here.

Assays:
[1] = tested on: RBL-2H3 cells; type: cell-based, rat; details: for Degranulation at 80 μg/mL, RBL-2H3: RBL-2H3 cells, 80 μg/mL peptide, 15 min at 37 °C, % of total β-hexosaminidase (0.1% Triton X-100 lysis)
Method: (§1) RBL-2H3 cells (rat mucosal-type mast cell line) and P815 cells (mouse mast cell tumor cell line) were obtained from the BeNa Culture Collection (Xinyang, China). RBL-2H3 cells were cultured in DMEM (Gibco, Wuhan, China) supplemented with 15% FBS (Gibco), and P815 cells were maintained in RPMI 1640 basic medium supplemented with 10% FBS and antibiotics (100 mg/L streptomycin and 1 × 10^5 U/L penicillin) in a humidified atmosphere (5% CO2, 37 °C).
(§2) Degranulation was analyzed by measuring the release of the granule marker N-acetyl-D-glucosaminidase (β-hexosaminidase), which colocalizes with histamine, as described in [24]. For this, 2 × 10^5 P815 cells/mL or 1.5 × 10^5 RBL-2H3 cells/mL were seeded in 96-well cell culture plates. Twelve hours later, the cells were incubated with various concentrations of mastoparans dissolved in 100 μL HEPES buffer (137 mM NaCl, 2.7 mM KCl, 1 mM MgCl2, 1.8 mM CaCl2, 20 mM HEPES, 1 mg/mL BSA, and 1 mg/mL glucose, pH 7.4) for 15 min at 37 °C and 5% CO2. Then, the reactions were quenched by the addition of 0.15 mL of ice-cold HEPES buffer. After centrifugation, the supernatants were sampled for the β-hexosaminidase assay. Briefly, 50 μL samples of the cell culture supernatants and 50 μL of the substrate, 5 mM p-nitrophenyl-N-acetyl-b-D-glucosaminide (Sigma) in 0.2 M citrate, pH 4.5, were incubated in 96-well plates at 37 °C and 5% CO2 for 16–18 h to yield the chromophore p-nitrophenol, and the reactions were stopped by the addition of 100 μL of 0.2 M glycine solution, pH 10.7. The absorbance of the colored product was assessed at 405 nm using a microtiter plate reader. The values for β-hexosaminidase released in the medium are expressed as the percentage of total β-hexosaminidase, which was measured in the cells after lysis in 0.1% Triton X-100. The experiment was repeated three times, and the results represent the mean and standard deviation (SD) of quadruplicate tests. The percent degranulation was calculated according to the following equation:Degranulation Rate (%) = 100% × (Amastoparans − AHEPES)/(ATriton X-100 − AHEPES).
Statistical analysis was performed with GraphPad Prism software. The curve of mast cell degranulation induced by wasp mastoparans was generated in SigmaPlot 12.5 software, and the EC50 was calculated according to the following equation (Four-Parameter Logistic Curve): y = min + (max − min)/(1 + (x/EC50) […] Hillslope).

[2] = tested on: P815 cells; experiment: Mast cell degranulation activity (β-hexosaminidase release) in P815 cells; type: cell-based, mouse; details: P815 cells, 80 μg/mL peptide, 15 min at 37 °C, % of total β-hexosaminidase (0.1% Triton X-100 lysis)
Method: as §1, §2

Compound	EC50 ([1]; pH 7.4) [µM]	further results
LKLMGIVKKVLGAL-NH2 [MP-EM1]	197 ± 164	
INLKAIAAFAKKLL-NH2 [Mastoparan-T]	138 ± 68.4	
INLKAIAALVKKVL-NH2 [HR1]	48.8 ± 3.57	
INWLKLGKAVIDIL-NH2 [Protopolybia-MP III-4]		EC50 [1]: 28.1 ± 3.71 µM
IDWKKLLDAAKQIL-NH2 [Polybia-MPI]	23.2 ± 2.09	
INLKALLAVAKKIL-NH2 [Mastoparan-C]	32.6 ± 8.56	
INWLKLGKKILGAL-NH2 [PDD-B]	21.7 ± 3.78	
LNFKALAALAKKIL-NH2 [Pm-R2]	94.8 ± 73.5	
INWLKLGKAVIAIL-NH2 [Protopolybia-MP III-10]		EC50 [1]: 8.39 ± 0.93 µM
INWLKLGKKVIDAL-NH2 [Protopolybia-MP III-1]		EC50 [1]: 98.4 ± 8.43 µM
INWHDIAIKNIDAL-NH2 [Polybia-MPV]	> 200	Degranulation at 80 μg/mL, RBL-2H3 [1]: 1%; EC50 (μg/mL), RBL-2H3 ([1]; pH 7.4): >300 µg/mL; Degranulation at 80 μg/mL, P815 [2]: <20%
INWLKLGKKVSAIL-NH2 [Protopolybia-MPI]	117 ± 38.3	
CC[C@H](C)[C@H](N)C(=O)N[C@@H](CC(N)=O)C(=O)N[C@@H](CC(C)C)C(=O)N[C@@H](CCCCN)C(=O)N[C@@H](C)C(=O)N[C@@H](CC(C)C)C(=O)N[C@@H](C)C(=O)N[C@@H](C)C(=O)N[C@@H](CC(C)C)C(=O)N[C@@H](C)C(=O)N[C@@H](CCCCN)C(=O)N[C@@H](CCCCN)C(=O)N[C@H](C(=O)N[C@@H](CC(C)C)C(N)=O)[C@@H](C)CC [Mastoparan(-L), reference compound]	52.1 ± 3.21	
GRILSFIKGLAEHL-NH2 [EMP-OD]	> 200	Degranulation at 80 μg/mL, RBL-2H3 [1]: 4%; EC50 (μg/mL), RBL-2H3 ([1]; pH 7.4): >300 µg/mL; Degranulation at 80 μg/mL, P815 [2]: <20%
INWKAIIEAAKQAL-NH2 [Protopolybia-MPII]	77.9 ± 9.08	
INWLKLGKAIIDAL-NH2 [Agelaia-MPI]	5.25 ± 0.87	
INWKKIKSIIKAAMN-NH2 [MP-V1]	130 ± 46.6	

Compound	EC50 ([1]; pH 7.4) [µM]	further results
INLKVFAALVKKLL-NH2 [Mastoparan-T2]	24.2 ± 7.89	
INLLKIAKGIIKSL-NH2 [EMP-AF]	76.9 ± 19.6	
INLKAIAALAKKLF-NH2 [Mastoparan-AF]	18.1 ± 3.94	
INWKKIKSLIKAAMS-NH2 [MP-V2]	88.9 ± 61.3	
INWLKLGKKVSDAL-NH2 [Protopolybia-MP III-5]		EC50 [1]: > 325 µM; EC50 (μg/mL), Protopolybia-MPIII and mutations [1]: >500 µg/mL; degranulation activity of mutant compared with Protopolybia-MPIII, in words ([1]; mutants of Protopolybia-MPIII, Table 3): almost lost
CC[C@H](C)[C@H](NC(=O)[C@H](CC(=O)O)NC(=O)[C@@H](N)Cc1ccccc1)C(=O)N[C@@H](CCSC)C(=O)NCC(=O)N[C@@H](CC(C)C)C(=O)N[C@H](C(=O)N[C@@H](CCCCN)C(=O)N[C@@H](CCCCN)C(=O)N[C@H](C(=O)N[C@@H](C)C(=O)NCC(=O)N[C@@H](C)C(=O)N[C@@H](CC(C)C)C(N)=O)C(C)C)[C@@H](C)CC [EMP-ER]	76.2 ± 5.81	
INWLKLGKKMMSAL-NH2 [MP]	66.8 ± 30.7	
LKLLGIVKKVLGAI-NH2 [EMP-EM2]	72.8 ± 19.8	
VDWKKIGQHILSVL-NH2 [Mastoparan-J]	37.3 ± 5.13	
INWKKMAATALKMI-NH2 [Parapolybia-MP]	89.4 ± 19.9	
IDWLKLGKMVMDVL-NH2 [Polybia-MPIII]	114 ± 59.3	
INWLKLGKKVIDIL-NH2 [Protopolybia-MP III-7]		EC50 [1]: 25.2 ± 1.56 µM
INWKGIAAMKKLL-NH2 [Mastoparan-like peptide 12b]	> 200	Degranulation at 80 μg/mL, RBL-2H3 [1]: 11%; EC50 (μg/mL), RBL-2H3 ([1]; pH 7.4): >300 µg/mL; Degranulation at 80 μg/mL, P815 [2]: <20%
INWLKLGKAVIDAL-NH2 [Protopolybia-MPIII]	22.5 ± 2.96	EC50 [1]: 21.7 ± 3.44 µM
INWLKLGKKVSDIL-NH2 [Protopolybia-MP III-13]		EC50 [1]: 145 ± 24.4 µM
INWLKLGKKVIAIL-NH2 [Protopolybia-MP III-12]		EC50 [1]: 47.7 ± 14.1 µM
